Test results published in US4100346A, “Certain 7(o-amino-methyl- or methylaminomethylphenyl- or cyclohexadienyl- or thienylacetamide)-3[1-carboxymethyl-(or ethyl- or propyl-)-tetrazol-5-ylthiomethyl]-3-cephem-4-carboxylic acids” (Bristol-Myers Company, priority 1976, dated 1978).
In brackets after ≈: the same amount, converted by molar mass. Several values for one entry are separate records, joined by “and”; a condition that tells them apart may be missing. Equal entries are not always repeated.

Tested on: Mycobacterium tuberculosis
Type: cell-based

Cc1nnc(SCC2=C(C(=O)O)N3C(=O)[C@@H](NC(=O)Cn4cnnn4)[C@H]3SC2)s1 [Cefazolin]
Minimum inhibitory concentration: 125 µg/mL and 250 µg/mL

O=C(Cc1cccs1)N[C@@H]1C(=O)N2C(C(=O)[O-])=C(C[n+]3ccccc3)CS[C@H]12 [Cephaloridine]
Minimum inhibitory concentration: 63 µg/mL (≈ 152 µM)
